Measured values taken from patent US12599136B2, “Substituted isophthalic acid diamides and their use as herbicides” (Bayer Aktiengesellschaft, priority 2020, dated 2026).

Tests used:
Assay type in all cases: in vivo
Polygonum convolvulus = experiment: Post-emergence herbicidal action against POLCO; conditions: 20 g/ha, visual assessment about 3 weeks after treatment
Description: Seeds of monocotyledonous and dicotyledonous weed and crop plants are laid out in sandy loam soil in wood-fiber pots, covered with soil and cultivated in a greenhouse under good growth conditions. 2 to 3 weeks after sowing, the test plants are treated at the one-leaf stage. The compounds of the invention, formulated in the form of wettable powders (WP) or as emulsion concentrates (EC), are then sprayed onto the green parts of the plants in the form of an aqueous suspension or emulsion at a water application rate equivalent to 600 to 800 l/ha, with addition of 0.2% wetting agent. After the test plants have been left to stand in the greenhouse under optimal growth conditions for about 3 weeks, the action of the preparations is assessed visually in comparison to untreated controls (herbicidal action in percent (%): 100% activity=the plants have died, 0% activity=like control plants). […] The tables below illustrate, in an illustrative manner, the post-emergence herbicidal action of the compounds of the invention, the herbicidal activity being stated in percent.

Alopecurus myosuroides [1] = experiment: Post-emergence herbicidal action against ALOMY; conditions: 20 g/ha
Method in brief: (§1)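 Greenhouse pot plants in sandy loam were sprayed at the one-leaf stage, 2 to 3 weeks after sowing, with WP or EC formulations as aqueous suspension or emulsion (600 to 800 l/ha water, 0.2% wetting agent). About 3 weeks later, damage was scored visually against untreated controls as % action (100% = dead, 0% = like control).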

Matricaria inodora [2] = experiment: Pre-emergence herbicidal action against MATIN; conditions: visual score after 3 weeks vs untreated controls
Method in brief: (§2)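 Visual rating at 3 weeks vs untreated pots; 0–100% scale, 100% = plants died. Treatment: aqueous WP/EC spray onto covering soil, 600–800 l/ha, 0.2% wetter, seeds in sandy loam.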

Alopecurus myosuroides [3] = experiment: Pre-emergence herbicidal action against ALOMY; conditions: 80 g/ha; visual score after 3 weeks vs untreated controls
Method in brief: as §2

Digitaria sanguinalis [4] = experiment: Post-emergence herbicidal action against DIGSA
Method in brief: as §1

Setaria viridis [5] = experiment: Pre-emergence herbicidal action against SETVI; conditions: 80 g/ha
Method in brief: as §2

Digitaria sanguinalis [6] = experiment: Pre-emergence herbicidal action against DIGSA
Method in brief: as §2

Setaria viridis [7] = experiment: Post-emergence herbicidal action against SETVI; conditions: 20 g/ha, visual assessment about 3 weeks after treatment
Method in brief: as §1

Veronica persica [8] = experiment: Post-emergence herbicidal action against VERPE; conditions: 20 g/ha, visual assessment about 3 weeks after treatment
Method in brief: as §1

Amaranthus retroflexus [9] = experiment: Post-emergence herbicidal action against AMARE; conditions: 20 g/ha, visual assessment about 3 weeks after treatment
Method in brief: as §1

Abutilon theophrasti [10] = experiment: Post-emergence herbicidal action against ABUTH; conditions: 20 g/ha
Method in brief: as §1

Echinochloa crus-galli [11] = experiment: Post-emergence herbicidal action against ECHCG; conditions: 20 g/ha, visual assessment about 3 weeks after treatment
Method in brief: as §1

Matricaria inodora [12] = experiment: Post-emergence herbicidal action against MATIN; conditions: visual assessment about 3 weeks after treatment
Method in brief: as §1

Avena fatua [13] = experiment: Post-emergence herbicidal action against AVEFA; conditions: 20 g/ha, visual assessment about 3 weeks after treatment
Method in brief: as §1

Amaranthus retroflexus [14] = experiment: Pre-emergence herbicidal action against AMARE; conditions: visual score after 3 weeks vs untreated controls
Method in brief: as §2

Viola tricolor [15] = experiment: Pre-emergence herbicidal action against VIOTR
Method in brief: as §2

Avena fatua [16] = experiment: Pre-emergence herbicidal action against AVEFA; conditions: 80 g/ha; visual score after 3 weeks vs untreated controls
Method in brief: as §2

Echinochloa crus-galli [17] = experiment: Pre-emergence herbicidal action against ECHCG; conditions: 80 g/ha; visual score after 3 weeks vs untreated controls
Method in brief: as §2

Viola tricolor [18] = experiment: Post-emergence herbicidal action against VIOTR
Method in brief: as §1

Abutilon theophrasti [19] = experiment: Pre-emergence herbicidal action against ABUTH; conditions: visual score after 3 weeks vs untreated controls
Method in brief: as §2

Veronica persica [20] = experiment: Pre-emergence herbicidal action against VERPE; conditions: 80 g/ha
Method in brief: as §2

## Cc1c(C(=O)Nc2nnnn2C)ccc(C(F)(F)F)c1C(=O)N(C)CC(F)F [Example 1-24]
Polygonum convolvulus
  Post-emergence action against POLCO in %: 100%
Alopecurus myosuroides [1]
  Post-emergence action against ALOMY: 90%
Matricaria inodora [2]; 20 g/ha
  Pre-emergence action against MATIN: 90%
Matricaria inodora [2]; 80 g/ha
  Pre-emergence action against MATIN: 100%
Alopecurus myosuroides [3]
  Pre-emergence action against ALOMY: 90%
Digitaria sanguinalis [4]; 5 g/ha
  Post-emergence action against DIGSA in %: 100%
Digitaria sanguinalis [4]; 20 g/ha
  Post-emergence action against DIGSA in %: 100%
Setaria viridis [5]
  Pre-emergence action against SETVI: 100%
Digitaria sanguinalis [6]; 20 g/ha
  Pre-emergence action against DIGSA: 100%
Digitaria sanguinalis [6]; 80 g/ha
  Pre-emergence action against DIGSA: 100%
Setaria viridis [7]
  Post-emergence action against SETVI in %: 80%
Veronica persica [8]
  Post-emergence action against VERPE in %: 80%
Amaranthus retroflexus [9]
  Post-emergence action against AMARE in %: 90%
Abutilon theophrasti [10]
  Post-emergence action against ABUTH: 80%
Echinochloa crus-galli [11]
  Post-emergence action against ECHCG in %: 80%
Matricaria inodora [12]; 5 g/ha
  Post-emergence action against MATIN in %: 90%
Matricaria inodora [12]; 20 g/ha
  Post-emergence action against MATIN in %: 90%
Avena fatua [13]
  Post-emergence action against AVEFA in %: 80%
Amaranthus retroflexus [14]; 20 g/ha
  Pre-emergence action against AMARE: 100%
Amaranthus retroflexus [14]; 80 g/ha
  Pre-emergence action against AMARE: 100%
Viola tricolor [15]; 20 g/ha
  Pre-emergence action against VIOTR: 80%
Viola tricolor [15]; 80 g/ha
  Pre-emergence action against VIOTR: 100%
Avena fatua [16]
  Pre-emergence action against AVEFA: 90%
Echinochloa crus-galli [17]
  Pre-emergence action against ECHCG: 100%
Viola tricolor [18]; 5 g/ha
  Post-emergence action against VIOTR in %: 80%
Viola tricolor [18]; 20 g/ha
  Post-emergence action against VIOTR in %: 90%
Abutilon theophrasti [19]; 20 g/ha
  Pre-emergence action against ABUTH: 100%
Abutilon theophrasti [19]; 80 g/ha
  Pre-emergence action against ABUTH: 100%
Veronica persica [20]
  Pre-emergence action against VERPE: 100%
